The assay has as its target T1, cytochrome bd quinol oxidase (Prevotella bivia, UniProt I4Z6X5).
T1 construct: gene PrebiDRAFT_0174; native complex in DDM-solubilized membranes, not purified; ORFs cyd-2 1143 bp and cyd-1 1536 bp; with Cytochrome bd ubiquinol oxidase subunit II
T1 sequence (I4Z6X5 1-511): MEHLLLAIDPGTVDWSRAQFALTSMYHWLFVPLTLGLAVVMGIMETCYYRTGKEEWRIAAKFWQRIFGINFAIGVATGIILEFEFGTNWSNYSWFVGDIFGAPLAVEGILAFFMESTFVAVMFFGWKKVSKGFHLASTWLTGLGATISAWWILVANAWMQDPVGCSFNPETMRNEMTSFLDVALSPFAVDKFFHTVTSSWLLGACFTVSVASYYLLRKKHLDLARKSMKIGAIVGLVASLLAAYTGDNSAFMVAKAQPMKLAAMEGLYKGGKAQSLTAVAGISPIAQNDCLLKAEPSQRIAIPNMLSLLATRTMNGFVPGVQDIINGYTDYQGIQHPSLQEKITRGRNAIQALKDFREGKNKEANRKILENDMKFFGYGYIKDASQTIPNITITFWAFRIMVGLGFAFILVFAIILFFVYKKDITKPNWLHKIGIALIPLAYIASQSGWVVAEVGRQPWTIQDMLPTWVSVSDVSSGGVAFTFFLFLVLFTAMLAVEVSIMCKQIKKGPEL
T1 sequence (I4Z6X4 1-380 partner): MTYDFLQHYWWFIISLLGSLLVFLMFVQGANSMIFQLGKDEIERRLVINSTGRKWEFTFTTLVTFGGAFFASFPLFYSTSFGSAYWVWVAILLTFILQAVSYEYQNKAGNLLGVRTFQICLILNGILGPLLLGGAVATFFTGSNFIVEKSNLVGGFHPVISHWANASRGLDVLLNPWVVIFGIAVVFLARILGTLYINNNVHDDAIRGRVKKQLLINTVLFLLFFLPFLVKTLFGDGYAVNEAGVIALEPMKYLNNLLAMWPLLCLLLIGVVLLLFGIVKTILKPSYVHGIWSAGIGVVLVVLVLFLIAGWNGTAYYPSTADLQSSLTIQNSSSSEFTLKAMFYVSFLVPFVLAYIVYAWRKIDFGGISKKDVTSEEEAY
Briefly: DMNH2 oxidation with H2O2 (peroxidase activity), double-beam photometer. In kind it is biochemical. The following applies: solubilized membranes; 200 µM DMNH2, H2O2 as acceptor, pH 7.0, 100 mM NaCl, anoxic.

Take `Cc1c(C)c(O)c2ccccc2c1O` [2,3-dimethyl-1,4-naphthoquinol]: the “DMNH2 oxidation with H2O2 (peroxidase activity), double-beam photometer” value is listed as “Solubilized membranes catalyzed the oxidation of the DMNH2 with H2O2 as an electron acceptor”.

Source of the values: publication PMC8585091, “Central Carbon Metabolism, Sodium-Motive Electron Transfer, and Ammonium Formation by the Vaginal Pathogen Prevotella bivia” (International Journal of Molecular Sciences, 2021).
